Assay: molar heat capacity at constant pressure
Conditions: 101.33 kPa

OC[C@@H](O)[C@@H](O)[C@H](O)[C@H](O)CO [D-mannitol]
molar heat capacity at constant pressure [J/K/mol]
Conditions | Small sample (50 mg) DSC | relaxation calorimetry
289.15 K, Crystal | 223.23 | –
290 K, Crystal | – | 224.45
290.15 K, Crystal | 223.75 | –
291.15 K, Crystal | 224.51 | –
292.15 K, Crystal | 225.52 | –
292.3 K, Crystal | – | 226.18
293.15 K, Crystal | 226.11 | –
294.15 K, Crystal | 226.79 | –
295.15 K, Crystal | 227.7 | –
296.15 K, Crystal | 228.45 | –
297.15 K, Crystal | 229.12 | –
298.15 K, Crystal | 229.81 | 230.54
299.15 K, Crystal | 230.64 | –
300 K, Crystal | – | 231.93
300.15 K, Crystal | 231.67 | –
301.15 K, Crystal | 232.46 | –
302.15 K, Crystal | 233.28 | –
302.32 K, Crystal | – | 233.27
303.15 K, Crystal | 234.21 | –
304.15 K, Crystal | 235.1 | –
305 K, Crystal | 236.23 | –
305.15 K, Crystal | 236.24 | –
306.15 K, Crystal | 237.06 | –
307.15 K, Crystal | 238.05 | –
308.15 K, Crystal | 239.43 | –
309.15 K, Crystal | 240.22 | –
310 K, Crystal | 241.08 | –
310.15 K, Crystal | 241.1 | –
311.15 K, Crystal | 242.22 | –
312.15 K, Crystal | 243.21 | –
313.15 K, Crystal | 244.03 | –
314.15 K, Crystal | 244.96 | –
315 K, Crystal | 245.72 | –
315.15 K, Crystal | 245.76 | –
316.15 K, Crystal | 246.45 | –
317.15 K, Crystal | 247.23 | –
318.15 K, Crystal | 248.19 | –
319.15 K, Crystal | 249.13 | –
320 K, Crystal | 250.2 | –
320.15 K, Crystal | 250.01 | –
321.15 K, Crystal | 250.96 | –
322.15 K, Crystal | 251.62 | –
323.15 K, Crystal | 252.78 | –
324.15 K, Crystal | 253.84 | –
325 K, Crystal | 254.58 | –
325.15 K, Crystal | 254.69 | –
326.15 K, Crystal | 255.76 | –
327.15 K, Crystal | 256.67 | –
328.15 K, Crystal | 257.61 | –
329.15 K, Crystal | 258.51 | –
330 K, Crystal | 258.9 | –
330.15 K, Crystal | 259.36 | –
331.15 K, Crystal | 260.09 | –
332.15 K, Crystal | 260.73 | –
333.15 K, Crystal | 261.83 | –
334.15 K, Crystal | 262.7 | –
335 K, Crystal | 263.16 | –
335.15 K, Crystal | 263.13 | –
336.15 K, Crystal | 263.97 | –
337.15 K, Crystal | 264.87 | –
338.15 K, Crystal | 265.55 | –
339.15 K, Crystal | 266.62 | –
340 K, Crystal | 267.39 | –
340.15 K, Crystal | 267.34 | –
341.15 K, Crystal | 268.11 | –
342.15 K, Crystal | 269.07 | –
343.15 K, Crystal | 270.04 | –
344.15 K, Crystal | 271.03 | –
345 K, Crystal | 271.57 | –
345.15 K, Crystal | 272.18 | –
346.15 K, Crystal | 272.93 | –
347.15 K, Crystal | 273.5 | –
348.15 K, Crystal | 274.48 | –
349.15 K, Crystal | 275.36 | –
350 K, Crystal | 275.71 | –
350.15 K, Crystal | 275.83 | –
351.15 K, Crystal | 276.6 | –
352.15 K, Crystal | 277.59 | –
353.15 K, Crystal | 278.11 | –
354.15 K, Crystal | 278.88 | –
355 K, Crystal | 279.8 | –
355.15 K, Crystal | 279.75 | –
356.15 K, Crystal | 280.45 | –
357.15 K, Crystal | 281.3 | –
358.15 K, Crystal | 282.01 | –
359.15 K, Crystal | 282.77 | –
360 K, Crystal | 283.81 | –
360.15 K, Crystal | 283.45 | –
361.15 K, Crystal | 284.29 | –
362.15 K, Crystal | 285.29 | –
363.15 K, Crystal | 285.81 | –
364.15 K, Crystal | 286.87 | –
365 K, Crystal | 287.75 | –
365.15 K, Crystal | 287.69 | –
366.15 K, Crystal | 288.42 | –
367.15 K, Crystal | 289.35 | –
368.15 K, Crystal | 290.07 | –
369.15 K, Crystal | 290.83 | –
370 K, Crystal | 291.59 | –
370.15 K, Crystal | 291.54 | –
371.15 K, Crystal | 292.39 | –
372.15 K, Crystal | 293.2 | –
373.15 K, Crystal | 293.84 | –
374.15 K, Crystal | 294.5 | –
375 K, Crystal | 295.33 | –
375.15 K, Crystal | 295.14 | –
376.15 K, Crystal | 295.96 | –
377.15 K, Crystal | 296.71 | –
378.15 K, Crystal | 297.3 | –
379.15 K, Crystal | 297.95 | –
380 K, Crystal | 298.96 | –
380.15 K, Crystal | 298.84 | –
381.15 K, Crystal | 299.49 | –
382.15 K, Crystal | 300.09 | –
383.15 K, Crystal | 300.96 | –
384.15 K, Crystal | 301.85 | –
385 K, Crystal | 302.49 | –
385.15 K, Crystal | 302.62 | –
386.15 K, Crystal | 303.19 | –
387.15 K, Crystal | 303.89 | –
388.15 K, Crystal | 304.75 | –
389.15 K, Crystal | 305.62 | –
390 K, Crystal | 305.94 | –
390.15 K, Crystal | 306.4 | –
391.15 K, Crystal | 307.13 | –
392.15 K, Crystal | 307.69 | –
393.15 K, Crystal | 308.43 | –
394.15 K, Crystal | 309.27 | –
395 K, Crystal | 309.33 | –
395.15 K, Crystal | 309.91 | –
396.15 K, Crystal | 310.41 | –
397.15 K, Crystal | 311.05 | –
398.15 K, Crystal | 311.45 | –
399.15 K, Crystal | 312.11 | –
400 K, Crystal | 312.71 | –
400.15 K, Crystal | 312.88 | –
401.15 K, Crystal | 313.5 | –
402.15 K, Crystal | 314.14 | –
403.15 K, Crystal | 315.02 | –
404.15 K, Crystal | 315.76 | –
405 K, Crystal | 316.13 | –
405.15 K, Crystal | 316.19 | –
406.15 K, Crystal | 317 | –
407.15 K, Crystal | 317.55 | –
408.15 K, Crystal | 318.33 | –
409.15 K, Crystal | 319.11 | –
410 K, Crystal | 319.66 | –
410.15 K, Crystal | 319.62 | –
411.15 K, Crystal | 320.34 | –
412.15 K, Crystal | 321.09 | –
413.15 K, Crystal | 321.71 | –
414.15 K, Crystal | 322.33 | –
415 K, Crystal | 323.4 | –
415.15 K, Crystal | 323.11 | –
416.15 K, Crystal | 323.76 | –
417.15 K, Crystal | 324.47 | –
418.15 K, Crystal | 325.49 | –
419.15 K, Crystal | 326.12 | –
420 K, Crystal | 327.48 | –
420.15 K, Crystal | 327.06 | –
421.15 K, Crystal | 327.89 | –
422.15 K, Crystal | 328.71 | –
423.15 K, Crystal | 329.87 | –
424.15 K, Crystal | 330.92 | –
425 K, Crystal | 332.03 | –
425.15 K, Crystal | 332.36 | –
458.15 K, Liquid | 511.69 | –
459.15 K, Liquid | 511.2 | –
460 K, Liquid | 511.26 | –
460.15 K, Liquid | 510.98 | –
461.15 K, Liquid | 510.64 | –
462.15 K, Liquid | 510.47 | –
463.15 K, Liquid | 510.51 | –
464.15 K, Liquid | 510.42 | –
465 K, Liquid | 511.16 | –
465.15 K, Liquid | 510.6 | –
466.15 K, Liquid | 510.6 | –
467.15 K, Liquid | 510.56 | –
468.15 K, Liquid | 510.86 | –
469.15 K, Liquid | 511.11 | –
470 K, Liquid | 511.05 | –
470.15 K, Liquid | 511.08 | –
471.15 K, Liquid | 511.49 | –
472.15 K, Liquid | 511.38 | –
473.15 K, Liquid | 511.18 | –
474.15 K, Liquid | 511.09 | –
475 K, Liquid | 510.95 | –
475.15 K, Liquid | 510.93 | –
476.15 K, Liquid | 510.9 | –
477.15 K, Liquid | 510.87 | –
478.15 K, Liquid | 510.67 | –
479.15 K, Liquid | 510.62 | –
480 K, Liquid | 510.84 | –
480.15 K, Liquid | 510.66 | –
481.15 K, Liquid | 510.52 | –
482.15 K, Liquid | 510.71 | –
483.15 K, Liquid | 510.62 | –
484.15 K, Liquid | 510.5 | –
485 K, Liquid | 510.74 | –
485.15 K, Liquid | 510.63 | –
486.15 K, Liquid | 510.59 | –
487.15 K, Liquid | 510.6 | –
488.15 K, Liquid | 510.74 | –
490 K, Liquid | 510.64 | –

Reference: the NIST ThermoML archive (doi:10.1016/j.jct.2017.08.004)
